{"source": "patent US10646483B2", "about": "“Crystal form of imidazolone type compounds, and preparation method, pharmaceutical composition and use thereof” (Foreland Pharma Co., Ltd., priority 2016, dated 2020)", "key": {"[1]": {"assay": "Metabolic experiments after oral (intragastric) administration to SD rats", "format": "in vivo", "settings": "10 mg/kg; for AUC(0-inf) / AUC(0-t) / MRT / Tmax / Cmax / half-life: rat, po", "experimental": "11.392 mg of Crystal Form I of Compound 1 hydrochloride was suspended in […] of 0.5% sodium carboxymethylcellulose, mixed to form a homogenous suspension, and then sonicated for 2 min to give a homogenous suspension having a concentration of 2 mg/mL (the suspension present was prepared on the day of administration, and stored for no more than 4 hours). Three SD rats were intragastrically administered at a dose of 10 mg/kg body weight, and blood analysis was performed at the set time points."}, "[2]": {"assay": "Test of dissolution rate in distilled water", "format": "physicochemical", "settings": "3 mg in 1 ml distilled water, shaken at 20-25° C. for 5 seconds", "experimental": "3 mg each of Crystal Form VII, Crystal Form I, and Crystal Form VI, were weighed, and put into three 1 ml plastic centrifuge tubes, respectively. To each tube was added 1 ml of distilled water and shaken at 20-25° C. for 5 seconds."}, "[3]": {"assay": "Solid stability test of Crystal Form I (drug stability test box: high temperature, high humidity, strong illumination)", "format": "physicochemical", "description": "A small amount of Crystal Form I of Compound 1 hydrochloride monohydrate of Example I-1 was taken and placed in a drug stability test box. The conditions were controlled as listed in Table 1 for the stability test. The results of the purities and the contents are listed in Table I-1, and the results of the crystal form tests are shown in FIGS. 4 to 6."}, "[4]": {"assay": "Tableting stability test (XRPD before and after tableting)", "format": "physicochemical", "settings": "manually tableted, 8 mm tablets, ground, FIG. 7", "description": "A small amount of Crystal Form I of Compound 1 hydrochloride monohydrate of Example 1 was taken and manually tableted to tablets with a diameter of 8 mm. The tablets were then gently ground. […] The XRPD patterns of the powders before and after the tableting of Crystal Form I were compared."}, "[5]": {"settings": "SD (Sprague-Dawley), blood, SD rat, Rat 1"}, "[6]": {"settings": "SD (Sprague-Dawley), blood, SD rat, Rat 2"}, "[7]": {"settings": "SD (Sprague-Dawley), blood, SD rats, Average of three rats"}, "[8]": {"settings": "Active Pharmaceutical Ingredient, Initial"}, "[9]": {"settings": "Illumination (4500 Lx ± 500 Lx), Day 5"}, "[10]": {"settings": "Illumination (4500 Lx ± 500 Lx), Day 10"}, "[11]": {"settings": "high temperature, high humidity and strong illumination, up to Day 10"}}, "note": "Where two headings read alike, the source gives them in different places."}
{"compound": "Cn1cc(-c2ccc(-c3ccc4ncc5c(c4c3)n([C@H]3CC[C@@H](O)CC3)c(=O)n5C)cn2)cn1", "note": "[Crystal Form I, 1-((1s,4s)-4-hydroxycyclohexyl)-3-methyl-8-(6-(1-methyl-1H-pyrazol-4-yl)pyridin-3-yl)-1H-imidazo[4,5-c]quinoline-2(3H)-one]", "values": [{"measurement": "AUC(0-inf)", "setting": "[1]; [5]", "value": 247, "unit": "µg·h/mL"}, {"measurement": "AUC(0-t)", "setting": "[1]; [5]", "value": 235, "unit": "µg·h/mL"}, {"measurement": "MRT", "setting": "[1]; [5]", "value": 6.74, "unit": "h"}, {"measurement": "Tmax", "setting": "[1]; [5]", "value": 2.8, "unit": "h"}, {"measurement": "Cmax", "setting": "[1]; SD (Sprague-Dawley), blood, SD rat, Rat 1, read-out: Cmax", "value": 19000, "unit": "ng/mL"}, {"measurement": "AUC(0-inf)", "setting": "[1]; [6]", "value": 192, "unit": "µg·h/mL"}, {"measurement": "AUC(0-t)", "setting": "[1]; [6]", "value": 183, "unit": "µg·h/mL"}, {"measurement": "MRT", "setting": "[1]; [6]", "value": 7.13, "unit": "h"}, {"measurement": "Tmax", "setting": "[1]; [6]", "value": 4, "unit": "h"}, {"measurement": "Cmax", "setting": "[1]; SD (Sprague-Dawley), blood, SD rat, Rat 2, read-out: Cmax", "value": 12100, "unit": "ng/mL"}, {"measurement": "half-life", "setting": "[1]; SD (Sprague-Dawley), blood, SD rat, Rat 2, read-out: t½ (converted)", "value": 5.4, "unit": "h"}, {"measurement": "half-life", "setting": "[1]; SD (Sprague-Dawley), blood, SD rat, suspension in 0.5% sodium carboxymethylcellulose, Rat 1, read-out: t½ (converted)", "value": 5.28, "unit": "h"}, {"measurement": "AUC(0-inf)", "setting": "[1]; [7]", "value": 201, "unit": "µg·h/mL"}, {"measurement": "AUC(0-t)", "setting": "[1]; [7]", "value": 191, "unit": "µg·h/mL"}, {"measurement": "MRT", "setting": "[1]; [7]", "value": 6.84, "unit": "h"}, {"measurement": "AUC Extr", "setting": "[1]; SD rat, Rat 1", "value": 4.72, "unit": "%"}, {"measurement": "AUC/D", "setting": "[1]; SD rat, Rat 1", "value": 11758, "unit": "ng·kg·h/mg/mL"}, {"measurement": "AUC Extr", "setting": "[1]; SD rat, Rat 2", "value": 4.70, "unit": "%"}, {"measurement": "AUC/D", "setting": "[1]; SD rat, Rat 2", "value": 9171, "unit": "ng·kg·h/mg/mL"}, {"measurement": "AUC Extr", "setting": "[1]; SD rat, Rat 3", "value": 5.96, "unit": "%"}, {"measurement": "AUC/D", "setting": "[1]; SD rat, Rat 3", "value": 7675, "unit": "ng·kg·h/mg/mL"}, {"measurement": "AUC Extr", "setting": "[1]; SD rats, Average of three rats", "value": 5.13, "unit": "%"}, {"measurement": "AUC/D", "setting": "[1]; SD rats, Average of three rats", "value": 9535, "unit": "ng·kg·h/mg/mL"}, {"measurement": "AUC(0-inf)", "setting": "[1]; SD, plasma, SD rat, Rat 3", "value": 163, "unit": "µg·h/mL"}, {"measurement": "AUC(0-t)", "setting": "[1]; SD, plasma, SD rat, Rat 3", "value": 154, "unit": "µg·h/mL"}, {"measurement": "MRT", "setting": "[1]; SD, plasma, SD rat, Rat 3", "value": 6.65, "unit": "h"}, {"measurement": "Tmax", "setting": "[1]; SD, plasma, SD rat, Rat 3", "value": 2.5, "unit": "h"}, {"measurement": "Cmax", "setting": "[1]; SD, plasma, SD rat, Rat 3, read-out: Cmax", "value": 12700, "unit": "ng/mL"}, {"measurement": "half-life", "setting": "[1]; SD, plasma, SD rat, Rat 3, read-out: t½ (converted)", "value": 5.81, "unit": "h"}, {"measurement": "Tmax", "setting": "[1]; SD, plasma, SD rats, Average of three rats", "value": 3.1, "unit": "h"}, {"measurement": "Cmax", "setting": "[1]; SD, plasma, SD rats, Average of three rats, read-out: Cmax", "value": 14600, "unit": "ng/mL"}, {"measurement": "half-life", "setting": "[1]; SD, plasma, SD rats, Average of three rats, read-out: t½ (converted)", "value": 5.5, "unit": "h"}, {"measurement": "AUC(0-t)", "setting": "[1]; SD, plasma, SD rats, average value", "value": 191, "unit": "µg·h/mL"}, {"measurement": "half-life", "setting": "[1]; SD, plasma, SD rats, average value, read-out: half-life (converted)", "value": 5.5, "unit": "h"}, {"measurement": "Cmax", "setting": "[1]; SD, plasma, SD rats, average value, read-out: maximum plasma concentration (Cmax)", "value": 14600, "unit": "ng/mL"}, {"measurement": "time to dissolve completely", "setting": "[2]", "value": 5, "unit": "h"}, {"measurement": "time to dissolve substantially", "setting": "[2]", "value": 2, "unit": "h"}, {"measurement": "Content %", "setting": "[3]; 25° C./95% RH, Day 5", "value": 100.86, "unit": "%"}, {"measurement": "Impurity %", "setting": "[3]; 25° C./95% RH, Day 5", "value": 0.72, "unit": "%"}, {"measurement": "Purity %", "setting": "[3]; 25° C./95% RH, Day 5", "value": 99.28, "unit": "%"}, {"measurement": "Content %", "setting": "[3]; 25° C./95% RH, Day 10", "value": 99.61, "unit": "%"}, {"measurement": "Impurity %", "setting": "[3]; 25° C./95% RH, Day 10", "value": 0.74, "unit": "%"}, {"measurement": "Purity %", "setting": "[3]; 25° C./95% RH, Day 10", "value": 99.26, "unit": "%"}, {"measurement": "Content %", "setting": "[3]; 60° C., Day 5", "value": 99.62, "unit": "%"}, {"measurement": "Impurity %", "setting": "[3]; 60° C., Day 5", "value": 0.73, "unit": "%"}, {"measurement": "Purity %", "setting": "[3]; 60° C., Day 5", "value": 99.27, "unit": "%"}, {"measurement": "Content %", "setting": "[3]; 60° C., Day 10", "value": 99.51, "unit": "%"}, {"measurement": "Impurity %", "setting": "[3]; 60° C., Day 10", "value": 0.79, "unit": "%"}, {"measurement": "Purity %", "setting": "[3]; 60° C., Day 10", "value": 99.21, "unit": "%"}, {"measurement": "Content %", "setting": "[3]; [8]", "value": 100.41, "unit": "%"}, {"measurement": "Impurity %", "setting": "[3]; [8]", "value": 0.74, "unit": "%"}, {"measurement": "Purity %", "setting": "[3]; [8]", "value": 99.26, "unit": "%"}, {"measurement": "Content %", "setting": "[3]; [9]", "value": 99.84, "unit": "%"}, {"measurement": "Impurity %", "setting": "[3]; [9]", "value": 0.93, "unit": "%"}, {"measurement": "Purity %", "setting": "[3]; [9]", "value": 99.07, "unit": "%"}, {"measurement": "Content %", "setting": "[3]; [10]", "value": 99.50, "unit": "%"}, {"measurement": "Impurity %", "setting": "[3]; [10]", "value": 0.87, "unit": "%"}, {"measurement": "Purity %", "setting": "[3]; [10]", "value": 99.13, "unit": "%"}, {"measurement": "crystal form (XRPD) after stability test", "setting": "[3]; high temperature, high humidity and strong illumination (FIGS. 4 to 6)", "value": "remains unchanged"}, {"measurement": "fluctuation of the content", "setting": "[3]; [11]", "value": "≤ 1", "unit": "%"}, {"measurement": "fluctuation of the purity", "setting": "[3]; [11]", "value": "≤ 0.2", "unit": "%"}, {"measurement": "effect of tableting process on crystal form (XRPD)", "setting": "[4]", "value": "did not change"}]}
{"compound": "Cn1cc(-c2ccc(-c3ccc4ncc5c(c4c3)n([C@H]3CC[C@@H](O)CC3)c(=O)n5C)cn2)cn1", "note": "[Crystal Form VI, 1-((1s,4s)-4-hydroxycyclohexyl)-3-methyl-8-(6-(1-methyl-1H-pyrazol-4-yl)pyridin-3-yl)-1H-imidazo[4,5-c]quinoline-2(3H)-one]", "values": [{"measurement": "time to dissolve completely", "setting": "[2]", "value": "> 5", "unit": "h"}]}
{"compound": "Cn1cc(-c2ccc(-c3ccc4ncc5c(c4c3)n([C@H]3CC[C@@H](O)CC3)c(=O)n5C)cn2)cn1", "note": "[Crystal Form VII, 1-((1s,4s)-4-hydroxycyclohexyl)-3-methyl-8-(6-(1-methyl-1H-pyrazol-4-yl)pyridin-3-yl)-1H-imidazo[4,5-c]quinoline-2(3H)-one]", "values": [{"measurement": "time to dissolve completely", "setting": "[2]", "value": "≤ 0.00278", "unit": "h"}]}
